Results as given in patent publication US10065990B2, “Cyclic peptide compound, and preparation method, pharmaceutical composition and use thereof” (HANGZHOU GUANYU BIO-MEDICAL CO., LTD, priority 2013, dated 2018).
Read-outs that look alike come from different tables or passages of the source.

Experiments:
HDAC7 = target: T1, HDAC7 (Homo sapiens, UniProt Q8WUI4); test: HDAC biochemical activity measurement (fluorescent substrate deacetylation);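 for all read-outs here: fluorogenic deacetylation assay using acetyl-lysine substrate at 20 µM, enzyme and compound incubated 30 min at 37 °C, then developer added, fluorescence read at 360/460 nm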; settings: for IC50 HDAC7: 37° C. 30 minutes
T1 sequence (Q8WUI4 1-952): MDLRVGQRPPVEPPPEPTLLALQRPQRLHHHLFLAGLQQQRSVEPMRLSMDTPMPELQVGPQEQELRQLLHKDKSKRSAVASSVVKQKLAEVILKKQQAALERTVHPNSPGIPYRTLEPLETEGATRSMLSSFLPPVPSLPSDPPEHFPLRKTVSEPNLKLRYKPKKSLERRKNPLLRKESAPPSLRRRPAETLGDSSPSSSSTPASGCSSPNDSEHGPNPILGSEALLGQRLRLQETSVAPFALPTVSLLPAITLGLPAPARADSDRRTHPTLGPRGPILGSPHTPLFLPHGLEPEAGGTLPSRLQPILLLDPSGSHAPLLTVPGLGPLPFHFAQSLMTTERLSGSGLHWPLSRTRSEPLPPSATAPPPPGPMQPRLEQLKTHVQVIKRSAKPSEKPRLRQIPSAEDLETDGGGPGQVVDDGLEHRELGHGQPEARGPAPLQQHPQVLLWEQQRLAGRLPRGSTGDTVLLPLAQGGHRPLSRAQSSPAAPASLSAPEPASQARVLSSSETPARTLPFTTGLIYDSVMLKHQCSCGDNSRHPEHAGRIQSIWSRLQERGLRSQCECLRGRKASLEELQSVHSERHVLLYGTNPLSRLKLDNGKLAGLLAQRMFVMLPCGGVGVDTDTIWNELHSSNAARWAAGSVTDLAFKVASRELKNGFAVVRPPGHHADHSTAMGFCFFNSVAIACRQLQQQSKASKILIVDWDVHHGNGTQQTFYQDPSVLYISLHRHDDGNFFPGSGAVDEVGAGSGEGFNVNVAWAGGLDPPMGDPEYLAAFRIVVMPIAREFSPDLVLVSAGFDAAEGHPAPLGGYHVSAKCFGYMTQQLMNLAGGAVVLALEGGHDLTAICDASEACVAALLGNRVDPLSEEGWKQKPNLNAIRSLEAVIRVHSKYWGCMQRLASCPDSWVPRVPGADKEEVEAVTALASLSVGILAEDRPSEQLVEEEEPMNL

[1] = system: A549 (human lung cancer cells); test: MTT cancer cell growth inhibition; format: cell-based; settings: Homo sapiens, A549, 72 h, MTT, 72 hours incubation, read-out: GI50 A54
Method in brief: (§1)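 GI50 values come from MTT viability: after 72 h compound exposure (final 10^−5–10^−10 M, three wells each) of cells plated overnight at 1500/well in 10% FBS medium, MTT was given for 4 h. The DMSO-solubilised formazan was then measured at 570 nm.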

[2] = system: BGC-823 (human gastric cancer cells); test: MTT cancer cell growth inhibition; format: cell-based; settings: Homo sapiens, BGC-823, 72 h, MTT, 72 hours incubation, read-out: GI50 BG
Method in brief: as §1

[3] = system: Bel-7402 (human hepatoma cells); test: MTT cancer cell growth inhibition; format: cell-based; settings: Homo sapiens, Bel-7402, 72 h, MTT, 72 hours incubation, Bel-7402 cells; read-out: GI50 Bel-7402
Method in brief: as §1

[4] = system: DU145 (human prostate cancer cells); test: MTT cancer cell growth inhibition; format: cell-based; settings: Homo sapiens, DU-145, 72 h, MTT, 72 hours incubation, read-out: GI50 Du1
Method in brief: as §1

[5] = system: H1975 (non-small cell lung adenocarcinoma); test: MTT cancer cell growth inhibition; format: cell-based; settings: Homo sapiens, NCI-H1975, 72 h, MTT, 72 hours incubation, H1975 cells; read-out: GI50 H1975
Method in brief: as §1

[6] = system: HCC827 (human non-small cell lung cancer cells); test: MTT cancer cell growth inhibition; format: cell-based; settings: Homo sapiens, HCC827, 72 h, MTT, 72 hours incubation, HCC827 cells; read-out: GI50 HCC827
Method in brief: as §1

[7] = system: HT1080 (human fibrosarcoma cells); test: MTT cancer cell growth inhibition; format: cell-based; settings: Homo sapiens, HT-1080, 72 h, MTT, 72 hours incubation, read-out: GI50 HT1
Method in brief: as §1

[8] = system: Hela (human cervical cancer cells); test: MTT cancer cell growth inhibition; format: cell-based; settings: Homo sapiens, HeLa, 72 h, MTT, 72 hours incubation, read-out: GI50 Hela
Method in brief: as §1

[9] = system: Huh-7 (human hepatoma cells); test: MTT cancer cell growth inhibition; format: cell-based; settings: Homo sapiens, Huh-7, 72 h, MTT, 72 hours incubation, Huh-7 cells; read-out: GI50 Huh-7
Method in brief: as §1

[10] = system: K562 (human leukemia cells); test: MTT cancer cell growth inhibition; format: cell-based; settings: Homo sapiens, K562, 72 h, MTT, 72 hours incubation, K562 cells; read-out: GI50 K562
Method in brief: as §1

[11] = system: KBM-5 (human chronic myelogenous leukemia); test: MTT cancer cell growth inhibition; format: cell-based; settings: Homo sapiens, KBM5, 72 h, MTT, 72 hours incubation, KBM-5 cells; read-out: GI50 KBM-5
Method in brief: as §1

[12] = system: KBM5-T315I (human chronic myelogenous leukemia); test: MTT cancer cell growth inhibition; format: cell-based; settings: Homo sapiens, 72 h, MTT, 72 hours incubation, KBM5-T315I cells; read-out: GI50 KBM5-T315I
Method in brief: as §1

[13] = system: MCF-7 (human breast cancer cells); test: MTT cancer cell growth inhibition; format: cell-based; settings: Homo sapiens, MCF7, 72 h, 72 hours incubation, read-out: GI50 MCF
Method in brief: as §1

[14] = system: MDA-MB-231 (breast cancer cells); test: MTT cancer cell growth inhibition; format: cell-based; settings: Homo sapiens, MDA-MB-231, 72 h, read-out: GI50 MDA-MB-231, MTT, 72 hours incubation, MDA-MB-231 cells
Method in brief: as §1

[15] = system: MOLT-4 (human acute lymphoblastic leukemia cells); test: MTT cancer cell growth inhibition; format: cell-based; settings: Homo sapiens, MOLT-4, 72 h, MTT, 72 hours incubation, read-out: GI50 Mol
Method in brief: as §1

[16] = system: N-87 (human gastric cancer cells); test: MTT cancer cell growth inhibition; format: cell-based; settings: Homo sapiens, 72 h, MTT, 72 hours incubation, N-87 cells; read-out: GI50 N-87
Method in brief: as §1

[17] = system: PANC-1 (Pac-1, human pancreatic cancer cells); test: MTT cancer cell growth inhibition; format: cell-based; settings: Homo sapiens, PANC-1, 72 h, MTT, 72 hours incubation, read-out: GI50 PAN
Method in brief: as §1

[18] = system: SGC-7901 (human gastric cancer cells); test: MTT cancer cell growth inhibition; format: cell-based; settings: Homo sapiens, SGC-7901, 72 h, MTT, 72 hours incubation, SGC-7901 cells; read-out: GI50 SGC-7901
Method in brief: as §1

[19] = system: U937 (human leukemia cells); test: MTT cancer cell growth inhibition; format: cell-based; settings: Homo sapiens, U-937, 72 h, MTT, 72 hours incubation, read-out: GI50 U93
Method in brief: as §1

[20] = system: lncap (prostate cancer cells); test: MTT cancer cell growth inhibition; format: cell-based; settings: Homo sapiens, LNCaP, 72 h, MTT, 72 hours incubation, read-out: GI50 lnca
Method in brief: as §1

Row | GI50 ([1]; A549 cells) | GI50 ([2]; BGC-823 cells) | GI50 [3] | GI50 ([4]; DU145 cells) | GI50 [5] | GI50 [6] | GI50 ([7]; HT1080 cells) | GI50 ([8]; Hela cells) | GI50 [9] | GI50 [10] | GI50 [11] | GI50 [12] | GI50 ([13]; MCF-7 cells) | GI50 [14] | GI50 ([15]; MOLT-4 cells) | GI50 [16] | GI50 ([17]; PANC-1 cells) | GI50 [18] | GI50 ([19]; U937 cells) | GI50 ([20]; lncap cells) | SMILES | other results
1 | 30 nM | 60 nM | 29 nM | 30 nM | 65 nM | 93 nM | 50 nM | 60 nM | 33 nM | 48 nM | 23 nM | 72 nM | 30 nM | 45 nM | 30 nM | 83 nM | 20 nM | 26 nM | 80 nM | 30 nM | C/C=C1\NC(=O)c2cc(SCC)cc(n2)CNC(=O)C[C@@H](/C=C/CCSC(=O)CCCCCCC)OC(=O)[C@H](C(C)C)NC1=O [Compound 248] | IC50 (μM) HDAC7 (HDAC7): no activity
2 | 50 nM | 30 nM | 41 nM | 30 nM | 76 nM | 23 nM | 40 nM | 80 nM | 43 nM | 72 nM | 47 nM | 27 nM | 70 nM | 29 nM | 50 nM | 45 nM | 20 nM | 33 nM | 70 nM | 40 nM | C/C=C1\NC(=O)c2ccc(SCC)c(n2)CNC(=O)C[C@@H](/C=C/CCSC(=O)CCCCCCC)OC(=O)[C@H](C(C)C)NC1=O [Compound 249] | IC50 (μM) HDAC7 (HDAC7): no activity
3 | 90 nM | 70 nM | 54 nM | 80 nM | 35 nM | 37 nM | 50 nM | 290 nM | 71 nM | 23 nM | 21 nM | 29 nM | 50 nM | 83 nM | 90 nM | 32 nM | 60 nM | 99 nM | 20 nM | 20 nM | C/C=C1\NC(=O)c2nc(ccc2SC)CNC(=O)C[C@@H](/C=C/CCSC(C)=O)OC(=O)[C@H](CCCCN)NC1=O [Compound 192] | IC50 HDAC7 (HDAC7): no activity

Continued, compound first:

Row | SMILES | GI50 ([1]; A549 cells) | GI50 ([2]; BGC-823 cells) | GI50 [3] | GI50 ([4]; DU145 cells) | GI50 [5] | GI50 [6] | GI50 ([7]; HT1080 cells) | GI50 ([8]; Hela cells) | GI50 [9] | GI50 [10] | GI50 [11] | GI50 [12] | GI50 ([13]; MCF-7 cells) | GI50 [14] | GI50 ([15]; MOLT-4 cells) | GI50 [16] | GI50 ([17]; PANC-1 cells) | GI50 [18] | GI50 ([19]; U937 cells) | GI50 ([20]; lncap cells) | other results
4 | C=C1NC(=O)c2ccc(F)c(n2)CNC(=O)C[C@@H](/C=C/CCS)OC(=O)[C@H](C)NC1=O [Compound 142] | – | – | 73 nM | – | 59 nM | 66 nM | – | – | 38 nM | 84 nM | 73 nM | 35 nM | – | 51 nM | – | 42 nM | – | 53 nM | – | – | IC50 HDAC7 (HDAC7): no activity; GI50 [1]: 130 nM; GI50 [2]: 70 nM; GI50 [4]: 50 nM; GI50 [7]: 70 nM; GI50 [8]: 50 nM; GI50 [13]: 50 nM; GI50 [15]: 20 nM; GI50 [17]: 130 nM; GI50 [19]: 50 nM; GI50 [20]: 110 nM
5 | C/C=C1\NC(=O)c2ccc(SC)c(n2)CNC(=O)C[C@@H](/C=C/CCSC(=O)CCCCC)OC(=O)[C@H](C(C)C)NC1=O [Compound 155] | 40 nM | 40 nM | 41 nM | 50 nM | 23 nM | 23 nM | 90 nM | 40 nM | 38 nM | 75 nM | 35 nM | 56 nM | 50 nM | 11 nM | 90 nM | 32 nM | 40 nM | 33 nM | 40 nM | 40 nM | IC50 HDAC7 (HDAC7): no activity
6 | C/C=C1\NC(=O)c2cc(SC)cc(n2)CNC(=O)C[C@@H](/C=C/CCSC(=O)CCC)OC(=O)[C@H](C(C)C)NC1=O [Compound 160] | 30 nM | 90 nM | 36 nM | 40 nM | 71 nM | 16 nM | 40 nM | 50 nM | 42 nM | 42 nM | 28 nM | 26 nM | 40 nM | 17 nM | 50 nM | 49 nM | 40 nM | 81 nM | 50 nM | 50 nM | IC50 HDAC7 (HDAC7): no activity
7 | C/C=C1\NC(=O)c2ccc(SC)c(n2)CNC(=O)C[C@@H](/C=C/CCSC(=O)CCCCCC)OC(=O)[C@H](C(C)C)NC1=O [Compound 152] | 50 nM | 50 nM | 47 nM | 60 nM | 38 nM | 35 nM | 90 nM | 60 nM | 28 nM | 11 nM | 41 nM | 29 nM | 60 nM | 65 nM | 90 nM | 35 nM | 50 nM | 23 nM | 50 nM | 60 nM | IC50 HDAC7 (HDAC7): no activity
